Experiment [1] relates to H22. Description: Antitumor activity against mouse H22 cells implanted in mouse assessed as tumor growth inhibition at 50 mg/kg, ip or ig qd administered for 10 consecutive days measured after 24 hrs post last dose relative to control. The note with it: read-out: TGI. The class given is functional.
Experiment [2] has as its system H22. Description: Antitumor activity against mouse H22 cells implanted in mouse assessed as tumor growth inhibition at 100 mg/kg, ip or ig qd administered for 10 consecutive days measured after 24 hrs post last dose relative to control. Type of experiment: functional. The note with it: read-out: TGI.
Experiment [3] concerns HepG2. The experiment in a line: Downregulation of Ki67 protein levels in human HepG2 cells after 48 hrs by Western blot analysis. Type of experiment: functional, cell-based. In general terms: A western blot detects proteins with antibodies after separation by electrophoresis.
Experiment [4] relates to HepG2. The experiment in a line: Synergistic downregulation of beta-catenin protein levels in human HepG2 cells at 5 ug/ml after 48 hrs in presence of sorafenib by Western blot analysis. The class given is functional, cell-based.
The test system of experiment [5] is HepG2. Description: Synergistic upregulation of vementin protein levels in human HepG2 cells at 5 ug/ml after 48 hrs in presence of sorafenib by Western blot analysis. The class given is functional, cell-based.
Experiment [6] relates to HepG2. The experiment in a line: Downregulation of C-myc protein levels in human HepG2 cells after 48 hrs by Western blot analysis. The class given is functional, cell-based.
Experiment [7] concerns HepG2. Description: Upregulation of vimentin protein levels in human HepG2 cells at 2.5 to 10 ug/ml after 48 hrs by Western blot analysis. Type of experiment: functional, cell-based.
In experiment [8] the test system is HepG2. Description: Downregulation of beta-Catenin protein levels in human HepG2 cells after 48 hrs by Western blot analysis. Type of experiment: functional, cell-based.
Another experiment deals with HeLa. Description: cells. The note with it: Homo sapiens, 48 h.
Experiment [9] relates to HepG2. The experiment in a line: Synergistic downregulation of Ki67 protein levels in human HepG2 cells at 5 ug/ml after 48 hrs in presence of sorafenib by Western blot analysis. Type of experiment: functional, cell-based.
In experiment [10] the test system is H22. Description: Synergistic antitumor activity against mouse H22 cells implanted in mouse assessed as tumor growth inhibition at 50 mg/kg, ip or ig qd administered for 10 consecutive days measured after 24 hrs post last dose in presence of sorafenib relative to control. The class given is functional. The note with it: read-out: TGI.
Experiment [11] has as its system HepG2. Description: Synergistic downregulation of cyclin D1 protein levels in human HepG2 cells at 5 ug/ml after 48 hrs in presence of sorafenib by Western blot analysis. Type of experiment: functional, cell-based.
A further experiment relates to MGC-803. The experiment in a line: Antiproliferative activity against human MGC803 cells after 48 hrs by MTT assay. The class given is functional, cell-based. To be noted: MGC-803, 48 h. For orientation: Tetrazolium assays rely on reduction of a dye to a coloured formazan, in cell work by metabolically active cells.
Experiment [12] relates to HepG2. Description: Downregulation of cyclin D1 protein levels in human HepG2 cells after 48 hrs by Western blot analysis. The class given is functional, cell-based.
Experiment [13] concerns HepG2. Description: Synergistic downregulation of C-myc protein levels in human HepG2 cells at 5 ug/ml after 48 hrs in presence of sorafenib by Western blot analysis. The class given is functional, cell-based.
The test system of experiment [14] is HepG2. The experiment in a line: cells. The note with it: Homo sapiens, HepG2, 48 h.

SMILES strings stand for the structures. Calls of active or inactive are those of the source. The rule behind the calls is not given here.

As for `COc1cc(NC(=O)Nc2ccc(N3CCC(CN)CC3)c(C(F)(F)F)c2)c2c(c1O)-c1c(OC)c(OC)cc3c1[C@H](C2)N(C)CC3`, the inhibition in vivo at 50 mg/kg in the experiment with H22 [1] came out at 27.2%; in the experiment with H22 [10], 66.5%. The inhibition in vivo at 100 mg/kg in the experiment on H22 [2] is 73.8%. The Activity result in the experiment on HepG2 [3], with HepG2 [6], in the experiment with HepG2 [8] and in the experiment on HepG2 [12] was “Dose-dependent effect” in each case. Further, the result in the experiment with HepG2 [4], in the experiment on HepG2 [5], in the experiment on HepG2 [7], in the experiment on HepG2 [9], in the experiment on HepG2 [11] and in the experiment with HepG2 [13] was Active. The IC50 (commonly the concentration needed to halve the response being measured) in the experiment with HeLa turned out to be 6.32 µM; with MGC-803 it was 11.1 µM; in the experiment on HepG2 [14], 7.51 µM.
